Test results taken from patent publication US9248162B2, “Factor H for treatment of rheumatoid arthritis” (Baxter International Inc., priority 2013, dated 2016).
Several values for one entry are separate records, joined by “and”; a condition that tells them apart may be missing. Equal entries are not always repeated.

Tests used:
Type in all cases: in vivo, Balb C mice
[1] = system: collagen antibody-induced arthritis; assay: Mouse CAIA: clinical score; set-up: key to Clinical Score, Summary (significance): ns: = not significant; *: = P < 0.05; **: = P < 0.01; ***: = P < 0.001
Description: (§1) The mice were treated with ArthritoMAb (anti-collagen) antibody cocktail (2 mg, i.v.) on day 1, followed 7 days later with an injection of LPS (50 μg, i.p.). On day 8, hind paw volumes were measured for each animal and distributed to various treatment groups.
Factor H was formulated in 20 mM Citrate, 150 mM NaCl, pH=6. […] Ethanercept was formulated as Enbrel™ in saline. Vehicle was formulated in 20 mM Citrate, 150 mM NaCl, pH=6. […] The dosing volume for Factor H and BX12 was 25 mL/kg (0.500 mL/20 g mouse) and adjusted accordingly for body weight.
(§2) Dosing with the different agents was started on day 8 as described in Table 3.

[2] = system: collagen antibody-induced arthritis; assay: Mouse CAIA: ankle histology scores (H & E); set-up: key: 0: normal; 1: minimal to mild loss of staining density with no obvious chondrocyte loss or collagen disruption; 2: mild loss of staining density with focal mild (superficial) chondrocyte loss and/or collagen disruption; 3: moderate loss of staining density with multifocal moderate (depth to middle zone) chondrocyte loss and/or collagen disruption; 4: marked loss of staining density with multifocal marked (depth to deep zone) chondrocyte loss and/or collagen disruption; 5: severe diffuse loss of staining density with multifocal severe (depth to tide mark) chondrocyte loss and/or collagen disruption; details: individual animal, score 0-5, endpoint day 22, listed as Group 3
Description: as §1, with “Balb C mice (n=10 per cohort) were used to determine the efficacy of Factor H (FH) during […]. The” for “The”
as §2
(§3) Hind paw volumes were measured on day 8, 11, 12, 13, 15, 19 and 22 (endpoint). The age at start date was 7 to 9 weeks. Body weights were measured bi-weekly to the endpoint (Table 4). At the endpoint, tissue samples were processed for histology and submitted to a pathologist for independent analysis. Sampling 1 was performed at the endpoint. The hind limbs were preserved in 10% formalin. Sampling 2 was performed at the endpoint for group 4 animals. Blood was collected by terminal cardiac puncture. The blood was processed for anti-coagulant. The kidneys were additionally preserved in formalin and followed with 70% EtOH. Samples were scored for inflammation, pannus (granulation tissue), cartilage damage, bone resorption and exostosis (Table 5).

[3] = system: collagen antibody-induced arthritis; assay: Mouse CAIA: ankle histology scores (H & E); set-up: key: 0: normal; 1: minimal; 2: mild; 3: moderate; 4: marked; 5: severe; details: individual animal, score 0-5, endpoint day 22, listed as Group 3
Description: as §1, with “Balb C mice (n=10 per cohort) were used to determine the efficacy of Factor H (FH) during […]. The” for “The”
as §2, §3

[4] = system: collagen antibody-induced arthritis; assay: Mouse CAIA: ankle histology scores (H & E); set-up: key to Score From H & E: Inflammation: 0: normal; 1: minimal infiltration of inflammatory cells in periarticular tissue; 2: mild infiltration; 3: moderate infiltration with moderate edema; 4: marked infiltration with marked edema; 5: severe infiltration with severe edema; key to Exostosis, Summary (significance) / Composite, Summary (significance) / Pannus, Summary (significance) / Cartilage, Summary (significance) / Inflammation, Summary (significance): ns: = not significant; *: = P < 0.05; **: = P < 0.01; ***: = P < 0.001; Composite Biohistopathology Score, group value / Composite Biohistopathology Score: scale not given here
Description: as §1, with “Balb C mice (n=10 per cohort) were used to determine the efficacy of Factor H (FH) during […]. The” for “The”
as §2, §3

[5] = system: collagen antibody-induced arthritis; assay: Mouse CAIA: ankle histology scores (H & E); set-up: key: 0: normal; 1: minimal infiltration of inflammatory cells in periarticular tissue; 2: mild infiltration; 3: moderate infiltration with moderate edema; 4: marked infiltration with marked edema; 5: severe infiltration with severe edema; details: individual animal, score 0-5, endpoint day 22, listed as Group 3
Description: as §1, with “Balb C mice (n=10 per cohort) were used to determine the efficacy of Factor H (FH) during […]. The” for “The”
as §2, §3

[6] = system: collagen antibody-induced arthritis; assay: Mouse CAIA: ankle histology scores (H & E); set-up: key: 0: normal; 1: minimal infiltration of pannus in cartilage and subchondral bone; 2: mild infiltration; 3: moderate infiltration; 4: marked infiltration; 5: severe infiltration; details: individual animal, score 0-5, endpoint day 22, listed as Group 3
Description: as §1, with “Balb C mice (n=10 per cohort) were used to determine the efficacy of Factor H (FH) during […]. The” for “The”
as §2, §3

[7] = Vehicle vs agent, Dunn's Multiple Comparison Test
[8] = ankle, group mean ± spread, 10 animals, score 0-5
[9] = histopathology score, graded 1-5, hind limbs at endpoint, group value

Etanercept
Clinical Score, Difference in rank sum [1, 7]: 3.55 | Clinical Score, Summary (significance) [1, 7]: ns | Max Clin Score, Mean ([1]; group mean, n=10): 39.60 | Clinical Score, Day of Study 8, Mean ([1]; group mean, n=10, day 8 (start of dosing)): 5.50 | Clinical Score, Day of Study 11, Mean ([1]; group mean, n=10, day 11): 19.60 | Clinical Score, Day of Study 12, Mean ([1]; group mean, n=10, day 12): 37.10 | Clinical Score, Day of Study 13, Mean ([1]; group mean, n=10, day 13): 35.50 | Clinical Score, Day of Study 16, Mean ([1]; group mean, n=10, day 16 (Jul. 1, 2011)): 31.50 | Clinical Score, Day of Study 19, Mean ([1]; group mean, n=10, day 19): 28.40 | Clinical Score, Day of Study 22, Mean ([1]; group mean, n=10, day 22 (endpoint)): 25.70 | Day (of Max Clin Score) ([1]; individual animal, day of study): 12 (8×) and 22 and 16 | Max Clin Score ([1]; individual animal, maximum over days 8 to 22): 32 and 50 (2×) and 45 and 46 and 35 and 30 and 20 and 34 and 52 | Clinical Score, Day of Study 8 ([1]; individual animal, score 0-60, day 8 (start of dosing)): 0 (5×) and 15 and 10 (4×) | Clinical Score, Day of Study 11 ([1]; individual animal, score 0-60, day 11): 12 (2×) and 34 and 28 and 4 and 15 and 43 and 11 and 10 and 27 | Clinical Score, Day of Study 12 ([1]; individual animal, score 0-60, day 12): 32 and 50 (2×) and 45 and 27 and 35 and 26 and 20 and 34 and 52 | Clinical Score, Day of Study 13 ([1]; individual animal, score 0-60, day 13): 32 and 50 and 45 (2×) and 21 and 35 and 30 and 15 and 34 and 48 | Clinical Score, Day of Study 16 ([1]; individual animal, score 0-60, day 16 (Jul. 1, 2011)): 32 and 49 and 21 and 48 and 25 and 45 and 15 and 10 and 24 and 46 | Clinical Score, Day of Study 19 ([1]; individual animal, score 0-60, day 19): 32 and 48 and 34 and 25 and 5 and 45 and 20 and 10 and 26 and 37 | Clinical Score, Day of Study 22 ([1]; individual animal, score 0-60, day 22 (endpoint)): 32 and 41 and 34 and 16 (2×) and 40 and 19 and 10 and 23 and 26 | Day (of Max Clin Score), Mean ([1]; listed as 'Mean', n=10, day of study): 12.00 | Mean Maximum Clinical Score ([1]; scored from 0 to 60 (15/limb), sum of 4 limbs, vehicle 45.4): 39.6^ns | Score From H & E: Cartilage Damage [2]: 1 (3×) and 2 (2×) | Score From H & E: Bone Resorption [3]: 1 and 3 (3×) | Score From H & E: Periosteal/Exostotic Changes [3]: 4 (2×) and 3 (2×) | Cartilage, Difference in rank sum [4, 7]: −1.5 | Cartilage, Summary (significance) [4, 7]: ns | Composite, Difference in rank sum [4, 7]: 2.1 | Composite, Summary (significance) [4, 7]: ns | Exostosis, Difference in rank sum [4, 7]: 5.8 | Exostosis, Summary (significance) [4, 7]: ns | Inflammation, Difference in rank sum [4, 7]: 3.6 | Inflammation, Summary (significance) [4, 7]: ns | Pannus, Difference in rank sum [4, 7]: 0.3 | Pannus, Summary (significance) [4, 7]: ns | Composite Biohistopathology Score, group value ([4]; ankle, group mean ± spread, 10 animals): 6.0 ± 2.1 | Score From H & E: Bone Resorption, group value [4, 8]: 1.0 ± 0.4 | Score From H & E: Cartilage Damage, group value [4, 8]: 0.7 ± 0.3 | Score From H & E: Inflammation, group value [4, 8]: 1.5 ± 0.5 | Score From H & E: Pannus, group value [4, 8]: 1.4 ± 0.5 | Score From H & E: Periosteal/Exostotic Changes, group value [4, 8]: 1.4 ± 0.6 | Composite Biohistopathology Score ([4]; ankle, individual animal, endpoint day 22, listed as Group 3): 11 (2×) and 0 (4×) and 16 and 15 and 1 and 4 | Score From H & E: Inflammation ([4]; ankle, individual animal, score 0-5, endpoint day 22, listed as Group 3): 3 (4×) and 0 (4×) and 1 and 2 | Composite Score ([4]; histopathology composite, hind limbs at endpoint, group value): 6.0 ± 2.1^ns | Bone Resorption [4, 9]: 1.0 ± 0.4^ns | Cartilage Damage [4, 9]: 0.7 ± 0.3^ns | Exostosis [4, 9]: 1.4 ± 0.6^ns | Inflammation [4, 9]: 1.5 ± 0.5^ns | Pannus [4, 9]: 1.4 ± 0.5^ns | Score From H & E: Bone Resorption [5]: 0 | Score From H & E: Cartilage Damage [5]: 0 | Score From H & E: Pannus [5]: 2 (3×) and 0 (5×) | Score From H & E: Periosteal/Exostotic Changes [5]: 0 | Score From H & E: Pannus [6]: 4
